Our source for the Kd values is ChEMBL document CHEMBL3991601, “The target landscape of clinical kinase drugs” (Science, 2017).

Activity calls are given as the source filed them. For most assays here, no stated cut-off is given here; in the data, actives have a measured Kd and inactives only a lower limit.

Experiment [1] has as its target Serine/threonine-protein kinase/endoribonuclease IRE2 (Homo sapiens, UniProt Q76MJ5).
The target of experiment [2] is Ephrin type-A receptor 7 (Homo sapiens, UniProt Q15375).
Experiment [3] concerns the target T1, Probable ATP-dependent RNA helicase DDX6 (Homo sapiens, UniProt P26196).
T1 sequence (P26196 whole entry): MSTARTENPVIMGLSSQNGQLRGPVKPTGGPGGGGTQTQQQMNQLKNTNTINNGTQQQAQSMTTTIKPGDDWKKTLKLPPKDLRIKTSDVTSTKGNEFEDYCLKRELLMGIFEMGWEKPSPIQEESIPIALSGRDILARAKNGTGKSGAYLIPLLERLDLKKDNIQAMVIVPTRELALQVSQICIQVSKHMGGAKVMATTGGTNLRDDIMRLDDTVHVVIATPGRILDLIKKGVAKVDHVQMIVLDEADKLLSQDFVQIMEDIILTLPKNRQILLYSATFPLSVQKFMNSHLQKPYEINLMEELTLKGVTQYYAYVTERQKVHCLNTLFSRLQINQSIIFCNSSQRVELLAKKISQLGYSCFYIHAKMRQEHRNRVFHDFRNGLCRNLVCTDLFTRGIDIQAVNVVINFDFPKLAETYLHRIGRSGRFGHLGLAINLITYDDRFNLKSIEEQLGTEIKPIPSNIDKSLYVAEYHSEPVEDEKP

The target in experiment [4] is Tyrosine-protein kinase Yes (Homo sapiens, UniProt P07947).
Experiment [5] concerns the target Mitogen-activated protein kinase 10 (Homo sapiens, UniProt P53779).
The target of experiment [6] is T2, Membrane-associated tyrosine- and threonine-specific cdc2-inhibitory kinase (Homo sapiens, UniProt Q99640).
T2 sequence (Q99640 whole entry): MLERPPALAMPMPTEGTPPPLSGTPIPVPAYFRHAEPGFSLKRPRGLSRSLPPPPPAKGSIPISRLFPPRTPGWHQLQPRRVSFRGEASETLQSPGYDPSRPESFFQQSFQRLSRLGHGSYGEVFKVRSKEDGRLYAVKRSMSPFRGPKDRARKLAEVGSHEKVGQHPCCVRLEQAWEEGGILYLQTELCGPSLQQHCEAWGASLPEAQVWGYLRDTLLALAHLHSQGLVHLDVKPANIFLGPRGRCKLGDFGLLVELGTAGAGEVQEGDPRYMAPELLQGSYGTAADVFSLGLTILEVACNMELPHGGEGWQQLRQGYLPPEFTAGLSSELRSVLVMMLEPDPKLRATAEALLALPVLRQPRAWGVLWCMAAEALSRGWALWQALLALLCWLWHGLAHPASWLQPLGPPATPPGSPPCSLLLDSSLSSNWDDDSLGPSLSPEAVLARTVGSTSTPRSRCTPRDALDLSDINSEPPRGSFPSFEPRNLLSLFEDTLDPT

Experiment [7] has as its target Focal adhesion kinase 1 (Homo sapiens, UniProt Q05397).
In experiment [8] the target is Casein kinase I isoform delta (Homo sapiens, UniProt P48730).
For experiment [9], the target named is Casein kinase II subunit alpha' (Homo sapiens, UniProt P19784).
For experiment [10], the target named is Mitogen-activated protein kinase kinase kinase 20 (Homo sapiens, UniProt Q9NYL2).
Experiment [11] deals with T3, Serine/threonine-protein kinase TBK1 (Homo sapiens, UniProt Q9UHD2).
T3 sequence (Q9UHD2 whole entry): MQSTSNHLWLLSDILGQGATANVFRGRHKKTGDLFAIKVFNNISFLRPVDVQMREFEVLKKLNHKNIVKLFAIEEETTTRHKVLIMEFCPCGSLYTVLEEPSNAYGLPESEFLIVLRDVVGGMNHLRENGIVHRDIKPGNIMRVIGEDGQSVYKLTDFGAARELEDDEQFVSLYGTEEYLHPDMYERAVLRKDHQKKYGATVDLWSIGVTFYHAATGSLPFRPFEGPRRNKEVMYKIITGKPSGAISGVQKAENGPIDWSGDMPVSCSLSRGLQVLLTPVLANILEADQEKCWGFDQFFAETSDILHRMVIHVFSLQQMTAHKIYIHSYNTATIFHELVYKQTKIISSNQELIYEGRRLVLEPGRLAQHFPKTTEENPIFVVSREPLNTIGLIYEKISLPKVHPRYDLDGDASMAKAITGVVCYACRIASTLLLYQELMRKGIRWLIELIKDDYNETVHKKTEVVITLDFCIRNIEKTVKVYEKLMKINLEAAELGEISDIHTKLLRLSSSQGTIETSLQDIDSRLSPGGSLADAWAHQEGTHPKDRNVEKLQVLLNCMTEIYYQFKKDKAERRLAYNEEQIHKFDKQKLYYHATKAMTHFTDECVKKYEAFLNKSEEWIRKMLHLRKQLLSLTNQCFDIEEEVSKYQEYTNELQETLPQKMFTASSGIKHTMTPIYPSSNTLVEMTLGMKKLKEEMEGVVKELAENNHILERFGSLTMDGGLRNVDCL

For experiment [12], the target named is Serine/threonine-protein kinase PAK 4 (Homo sapiens, UniProt O96013).

Ephrin type-A receptor 7, sequence (Q15375 whole entry): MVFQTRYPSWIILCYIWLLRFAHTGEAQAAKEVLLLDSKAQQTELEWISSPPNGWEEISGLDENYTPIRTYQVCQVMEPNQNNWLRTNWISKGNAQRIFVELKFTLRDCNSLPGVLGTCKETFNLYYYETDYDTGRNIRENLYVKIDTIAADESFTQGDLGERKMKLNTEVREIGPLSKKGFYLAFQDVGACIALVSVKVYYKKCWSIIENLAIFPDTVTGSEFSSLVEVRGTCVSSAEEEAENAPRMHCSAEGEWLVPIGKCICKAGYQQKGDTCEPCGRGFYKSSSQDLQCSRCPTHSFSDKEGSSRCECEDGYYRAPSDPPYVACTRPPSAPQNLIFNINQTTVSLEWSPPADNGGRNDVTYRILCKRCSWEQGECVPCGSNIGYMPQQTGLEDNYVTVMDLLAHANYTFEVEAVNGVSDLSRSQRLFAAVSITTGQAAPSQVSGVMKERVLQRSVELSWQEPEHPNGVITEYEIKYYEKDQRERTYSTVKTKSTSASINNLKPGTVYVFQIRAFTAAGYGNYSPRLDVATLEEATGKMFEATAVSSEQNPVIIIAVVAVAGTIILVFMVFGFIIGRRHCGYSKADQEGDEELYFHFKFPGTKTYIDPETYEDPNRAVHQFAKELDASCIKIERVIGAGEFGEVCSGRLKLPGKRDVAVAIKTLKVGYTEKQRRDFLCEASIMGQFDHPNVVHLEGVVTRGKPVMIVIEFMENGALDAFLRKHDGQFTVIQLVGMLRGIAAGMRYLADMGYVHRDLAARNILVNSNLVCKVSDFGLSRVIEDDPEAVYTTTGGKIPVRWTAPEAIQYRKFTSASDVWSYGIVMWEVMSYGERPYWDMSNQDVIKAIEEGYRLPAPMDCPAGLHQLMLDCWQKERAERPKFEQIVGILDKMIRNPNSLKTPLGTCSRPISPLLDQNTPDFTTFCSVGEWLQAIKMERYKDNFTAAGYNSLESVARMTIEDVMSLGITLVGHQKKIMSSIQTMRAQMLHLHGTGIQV
Tyrosine-protein kinase Yes, sequence (P07947 whole entry): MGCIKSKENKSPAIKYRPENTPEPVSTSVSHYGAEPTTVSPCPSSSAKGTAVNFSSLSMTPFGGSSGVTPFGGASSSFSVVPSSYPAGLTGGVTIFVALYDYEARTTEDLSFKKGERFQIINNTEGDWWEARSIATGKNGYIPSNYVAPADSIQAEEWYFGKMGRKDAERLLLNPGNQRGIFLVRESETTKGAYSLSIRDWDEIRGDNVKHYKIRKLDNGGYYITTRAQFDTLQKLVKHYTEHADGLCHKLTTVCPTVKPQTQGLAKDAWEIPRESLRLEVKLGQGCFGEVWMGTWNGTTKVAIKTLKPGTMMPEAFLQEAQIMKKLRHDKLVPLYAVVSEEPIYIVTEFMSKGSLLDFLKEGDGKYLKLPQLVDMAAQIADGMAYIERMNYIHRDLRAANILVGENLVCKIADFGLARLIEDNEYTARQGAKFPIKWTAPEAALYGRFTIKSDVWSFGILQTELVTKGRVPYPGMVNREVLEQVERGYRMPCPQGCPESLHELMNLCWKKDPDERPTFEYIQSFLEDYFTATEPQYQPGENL
Focal adhesion kinase 1, sequence (Q05397 whole entry, canonical isoform): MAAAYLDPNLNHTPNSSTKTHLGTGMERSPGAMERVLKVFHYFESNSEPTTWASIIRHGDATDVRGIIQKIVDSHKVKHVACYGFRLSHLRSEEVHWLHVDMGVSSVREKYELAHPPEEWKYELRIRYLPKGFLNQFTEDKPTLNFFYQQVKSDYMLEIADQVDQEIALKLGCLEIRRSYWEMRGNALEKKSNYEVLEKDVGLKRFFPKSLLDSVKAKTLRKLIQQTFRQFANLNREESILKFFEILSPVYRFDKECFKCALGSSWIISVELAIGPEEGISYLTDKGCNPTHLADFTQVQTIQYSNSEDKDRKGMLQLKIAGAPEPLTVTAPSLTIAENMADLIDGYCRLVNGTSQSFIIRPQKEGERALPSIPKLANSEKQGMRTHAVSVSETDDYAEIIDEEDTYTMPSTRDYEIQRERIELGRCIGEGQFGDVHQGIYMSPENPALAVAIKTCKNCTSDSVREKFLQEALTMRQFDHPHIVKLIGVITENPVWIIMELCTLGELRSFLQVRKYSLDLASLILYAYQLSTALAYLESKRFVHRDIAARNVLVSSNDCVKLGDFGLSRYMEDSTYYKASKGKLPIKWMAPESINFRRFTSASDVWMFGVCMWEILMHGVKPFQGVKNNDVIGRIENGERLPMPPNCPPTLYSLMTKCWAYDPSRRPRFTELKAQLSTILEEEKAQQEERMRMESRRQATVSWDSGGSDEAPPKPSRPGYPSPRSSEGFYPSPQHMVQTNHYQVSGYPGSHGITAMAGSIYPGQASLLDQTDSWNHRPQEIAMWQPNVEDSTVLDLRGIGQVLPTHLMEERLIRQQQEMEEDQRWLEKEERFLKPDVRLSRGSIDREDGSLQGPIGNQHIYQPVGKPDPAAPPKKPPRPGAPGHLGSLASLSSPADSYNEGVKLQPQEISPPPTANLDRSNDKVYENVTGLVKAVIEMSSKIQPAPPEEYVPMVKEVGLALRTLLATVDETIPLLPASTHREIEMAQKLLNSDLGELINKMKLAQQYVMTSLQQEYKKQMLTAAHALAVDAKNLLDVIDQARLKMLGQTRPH
Mitogen-activated protein kinase kinase kinase 20, sequence (Q9NYL2 whole entry): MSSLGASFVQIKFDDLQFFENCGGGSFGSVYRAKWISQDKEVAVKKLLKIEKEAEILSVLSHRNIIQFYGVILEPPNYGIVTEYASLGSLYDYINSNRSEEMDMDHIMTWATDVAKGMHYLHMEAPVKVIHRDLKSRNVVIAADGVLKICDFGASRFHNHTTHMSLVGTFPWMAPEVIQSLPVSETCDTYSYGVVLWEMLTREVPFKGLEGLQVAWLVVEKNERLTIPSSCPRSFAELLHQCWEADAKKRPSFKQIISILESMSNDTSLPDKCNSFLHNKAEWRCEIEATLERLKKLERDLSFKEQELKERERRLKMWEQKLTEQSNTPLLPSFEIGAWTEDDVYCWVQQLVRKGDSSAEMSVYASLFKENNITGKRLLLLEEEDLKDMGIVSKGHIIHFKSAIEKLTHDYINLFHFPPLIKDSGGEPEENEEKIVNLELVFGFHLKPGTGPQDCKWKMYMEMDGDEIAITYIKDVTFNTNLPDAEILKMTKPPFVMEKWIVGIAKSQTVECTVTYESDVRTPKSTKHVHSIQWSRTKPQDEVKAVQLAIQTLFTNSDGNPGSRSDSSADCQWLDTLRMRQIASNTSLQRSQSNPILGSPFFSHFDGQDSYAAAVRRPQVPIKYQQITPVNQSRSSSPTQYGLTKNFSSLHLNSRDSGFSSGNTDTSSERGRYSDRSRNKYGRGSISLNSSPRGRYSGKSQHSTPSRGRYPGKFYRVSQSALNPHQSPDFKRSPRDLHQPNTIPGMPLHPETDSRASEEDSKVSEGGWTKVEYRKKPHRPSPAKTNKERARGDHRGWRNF
Casein kinase II subunit alpha', sequence (P19784 whole entry): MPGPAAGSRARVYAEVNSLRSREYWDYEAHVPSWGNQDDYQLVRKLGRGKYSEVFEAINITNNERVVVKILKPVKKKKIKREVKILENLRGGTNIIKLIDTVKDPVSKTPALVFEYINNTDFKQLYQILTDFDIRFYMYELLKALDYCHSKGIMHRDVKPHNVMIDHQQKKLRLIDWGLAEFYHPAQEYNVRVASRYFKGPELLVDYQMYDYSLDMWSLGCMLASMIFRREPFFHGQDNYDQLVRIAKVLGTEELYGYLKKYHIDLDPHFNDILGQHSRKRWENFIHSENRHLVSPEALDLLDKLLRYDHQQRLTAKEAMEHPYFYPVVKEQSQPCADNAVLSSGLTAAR
Mitogen-activated protein kinase 10, sequence (P53779 whole entry): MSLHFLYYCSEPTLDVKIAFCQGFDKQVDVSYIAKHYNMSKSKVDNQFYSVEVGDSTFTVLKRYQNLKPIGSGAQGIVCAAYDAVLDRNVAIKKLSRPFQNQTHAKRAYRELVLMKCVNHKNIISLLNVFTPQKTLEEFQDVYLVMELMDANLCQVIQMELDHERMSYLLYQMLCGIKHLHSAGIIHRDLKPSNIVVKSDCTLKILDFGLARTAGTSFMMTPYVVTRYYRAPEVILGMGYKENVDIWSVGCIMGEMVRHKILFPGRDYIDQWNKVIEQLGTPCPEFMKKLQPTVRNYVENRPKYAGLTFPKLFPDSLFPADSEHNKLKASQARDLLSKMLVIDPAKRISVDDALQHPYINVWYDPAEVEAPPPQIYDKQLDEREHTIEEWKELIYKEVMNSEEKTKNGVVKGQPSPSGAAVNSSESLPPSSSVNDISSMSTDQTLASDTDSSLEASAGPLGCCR
Casein kinase I isoform delta, sequence (P48730 whole entry, canonical isoform): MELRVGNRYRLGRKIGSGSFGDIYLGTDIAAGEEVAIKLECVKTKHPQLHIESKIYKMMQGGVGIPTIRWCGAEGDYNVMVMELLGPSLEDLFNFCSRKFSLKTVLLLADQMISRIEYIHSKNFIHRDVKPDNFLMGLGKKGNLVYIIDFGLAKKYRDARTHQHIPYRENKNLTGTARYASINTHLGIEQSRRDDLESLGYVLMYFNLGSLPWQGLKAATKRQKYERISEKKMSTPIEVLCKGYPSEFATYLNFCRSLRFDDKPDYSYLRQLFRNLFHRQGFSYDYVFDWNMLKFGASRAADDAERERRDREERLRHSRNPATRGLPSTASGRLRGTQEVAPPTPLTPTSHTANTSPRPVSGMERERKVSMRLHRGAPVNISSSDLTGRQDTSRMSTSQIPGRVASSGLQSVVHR

Take `COc1cc(Nc2ncc3c(n2)-c2ccc(Cl)cc2C(c2c(F)cccc2OC)=NC3)ccc1C(=O)O` [ALISERTIB]: the Kd in experiment [1], in experiment [2], in experiment [3], in experiment [4], in experiment [5] and in experiment [6] was > 30 µM (inactive) in each case.

With `O=C(Nc1c[nH]nc1-c1nc2cc(CN3CCOCC3)ccc2[nH]1)NC1CC1` [AT-9283], the Kd in experiment [1] is > 30 µM (inactive); in experiment [2], 0.008 µM (active); in [7] it was > 30 µM (inactive); in [8], > 30 µM (inactive); in experiment [3], > 30 µM (inactive); in experiment [4] it was 0.574 µM (active). For the same compound, the Kd in [9] was 0.065 µM (active); in [5], 0.358 µM (active); in [10], > 30 µM (inactive); in experiment [6], > 30 µM (inactive).

Regarding `CNC(=O)c1ccccc1Sc1ccc2c(/C=C/c3ccccn3)n[nH]c2c1` [AXITINIB], the Kd in experiment [1] and in [3] was > 30 µM (inactive) throughout.

In the case of `Cc1cc(Nc2ncc(Cl)c(Nc3ccccc3S(=O)(=O)C(C)C)n2)c(OC(C)C)cc1C1CCNCC1` [CERITINIB], the Kd in [1], in [2], in experiment [11], in [12], in experiment [8] and in experiment [3] was > 30 µM (inactive) each time. The Kd in experiment [4], in [9], in experiment [5], in [10] and in experiment [6] was > 30 µM (inactive) in each case.

In the case of `C#Cc1cccc(Nc2ncnc3cc(OC)c(OCCCCCCC(=O)NO)cc23)c1` [CUDC-101], the Kd in [1], in experiment [11], in [12], in [7], in [8] and in experiment [3] was > 30 µM (inactive) throughout. The Kd in experiment [4], in experiment [9], in experiment [5], in [10] and in [6] was > 30 µM (inactive) in each case.

`Cn1cc(C2=C(c3cn(C4CCN(Cc5ccccn5)CC4)c4ccccc34)C(=O)NC2=O)c2ccccc21` [ENZASTAURIN]: the Kd in [1] and in experiment [3] was > 30 µM (inactive) each time.

Turning to `C[C@@H](Oc1cc(-n2cnc3ccc(CN4CCN(C)CC4)cc32)sc1C(N)=O)c1ccccc1C(F)(F)F` [GSK-461364], the Kd in [1] and in [3] was > 30 µM (inactive) throughout.

With `CCn1cc(-c2ccnc3[nH]c(-c4cccc(CN(C)C)c4)cc23)c(-c2ccc(NC(=O)N(C)C)cc2)n1` [GSK-1070916], the Kd in [1], in [2], in experiment [11], in experiment [12], in [7] and in experiment [3] was > 30 µM (inactive) throughout. Further, the Kd in [4], in experiment [9], in experiment [5], in experiment [10] and in experiment [6] was > 30 µM (inactive) each time.

With `Cc1[nH]c(/C=C2\C(=O)Nc3ccccc32)c(C)c1CCC(=O)O` [ORANTINIB], the Kd in [1] is > 30 µM (inactive); in experiment [2] it was > 30 µM (inactive); in experiment [11], 1.98 µM (active); in experiment [3], > 30 µM (inactive); in experiment [4], > 30 µM (inactive); in experiment [9], 2.1 µM (active). The Kd in [6] was > 30 µM (inactive).

Consider `NC(=O)c1c(OCc2c(F)cc(Br)cc2F)nsc1NC(=O)NCCCCN1CCCC1` [OSI-632], for which the Kd in experiment [1] is > 30 µM (inactive); in experiment [2] it was > 30 µM (inactive); in experiment [3], > 30 µM (inactive); in [4], 0.881 µM (active); in [9], > 30 µM (inactive); in experiment [5] it was > 30 µM (inactive). Further, in [6], the Kd was > 30 µM (inactive).

As to `CCOc1cc2ncc(C#N)c(Nc3ccc(F)c(Cl)c3)c2cc1NC(=O)/C=C/CN(C)C` [PELITINIB], the Kd in experiment [1] was > 30 µM (inactive); in experiment [2] it was > 30 µM (inactive); in experiment [11], > 30 µM (inactive); in [12], > 30 µM (inactive); in experiment [8] it was 3.88 µM (active); in [3] it was > 30 µM (inactive). In addition, the Kd in experiment [4] was > 30 µM (inactive); in experiment [9], > 30 µM (inactive); in [5], > 30 µM (inactive); in experiment [10], 0.875 µM (active); in [6], > 30 µM (inactive).

As to `CC(=O)NCC(=O)N1[C@@H]2CC[C@H]1c1ccc(Nc3ncc(C(F)(F)F)c(NC4CCC4)n3)cc12` [PF-03814735], the Kd is > 30 µM (inactive) in experiment [1]; > 30 µM (inactive) in experiment [2]; > 30 µM (inactive) in experiment [3]; > 30 µM (inactive) in experiment [4]; 2.64 µM (active) in [9]; > 30 µM (inactive) in experiment [5]. Moreover, in experiment [6], the Kd is > 30 µM (inactive).

Consider `CNC(=O)c1cc(Oc2ccc(NC(=O)Nc3cc(C(C)(C)C)nn3-c3ccc4ncccc4c3)c(F)c2)ccn1` [REBASTINIB], for which the Kd in [1], in [11], in experiment [12], in experiment [7], in experiment [8] and in experiment [3] was > 30 µM (inactive) in each case. In addition, the Kd in experiment [9] was > 30 µM (inactive); in experiment [5], 0.072 µM; in [10] it was 0.388 µM (active); in experiment [6] it was > 30 µM (inactive).

With `O=C(NOCCO)c1cc(CN2OCCCC2=O)c(F)c(F)c1Nc1ccc(I)cc1F` [RO-4987655], the Kd in [1] and in [3] was > 30 µM (inactive) each time.

Take `N#CC[C@H](C1CCCC1)n1cc(-c2ncnc3[nH]ccc23)cn1` [RUXOLITINIB]: the Kd in [1] and in [3] was > 30 µM (inactive) each time.

With `CN1CCN(CCOc2cc(OC3CCOCC3)c3c(Nc4c(Cl)ccc5c4OCO5)ncnc3c2)CC1` [SARACATINIB], the Kd in experiment [1], in [2], in experiment [11], in experiment [12], in experiment [7] and in experiment [8] was > 30 µM (inactive) each time. Further, the Kd in [3] is > 30 µM (inactive); in experiment [9] it was > 30 µM (inactive); in [5] it was > 30 µM (inactive); in [10] it was 2.98 µM (active).

For orientation: Kd means the constant that tells how readily two partners part at equilibrium.
